The text below walks through data of ChEMBL document CHEMBL3046312, “Synthesis and biologic evaluation of new 3-phenoxyazetidin-2-one derivatives as selective cyclooxygenase-2 inhibitors” (Med Chem Res, 2013).

The assay concerns the target T1, Prostaglandin G/H synthase 1 (Ovis aries, UniProt P05979).
T1 sequence (P05979 whole entry): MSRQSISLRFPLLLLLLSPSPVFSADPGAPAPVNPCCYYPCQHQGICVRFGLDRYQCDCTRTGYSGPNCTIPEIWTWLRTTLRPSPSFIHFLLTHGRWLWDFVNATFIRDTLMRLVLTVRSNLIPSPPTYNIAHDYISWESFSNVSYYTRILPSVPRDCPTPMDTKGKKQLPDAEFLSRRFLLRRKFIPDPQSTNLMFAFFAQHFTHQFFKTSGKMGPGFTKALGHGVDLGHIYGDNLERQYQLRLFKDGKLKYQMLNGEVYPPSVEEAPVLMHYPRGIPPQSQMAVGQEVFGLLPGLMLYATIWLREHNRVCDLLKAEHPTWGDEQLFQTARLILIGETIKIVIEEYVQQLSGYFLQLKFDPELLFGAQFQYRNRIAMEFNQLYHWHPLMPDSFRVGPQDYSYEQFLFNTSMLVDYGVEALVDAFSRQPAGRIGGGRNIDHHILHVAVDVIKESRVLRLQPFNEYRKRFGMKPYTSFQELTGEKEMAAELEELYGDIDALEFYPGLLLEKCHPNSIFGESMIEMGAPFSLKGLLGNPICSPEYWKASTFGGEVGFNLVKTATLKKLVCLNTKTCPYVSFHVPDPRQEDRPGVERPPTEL
In words: Inhibition of Ovis aries (sheep) cyclooxygenase-1 using arachidonic acid as substrate by chemiluminescent assay.
Compound `CCCCN1C(=O)[C@@H](Oc2ccccc2)[C@H]1c1ccc(S(C)(=O)=O)cc1` (relative stereo) registered an IC50 of 20.9 µM. The result for `CCCCCN1C(=O)[C@@H](Oc2ccccc2)[C@H]1c1ccc(S(C)(=O)=O)cc1` (relative stereo) reads 21.2 µM; that for `CS(=O)(=O)c1ccc([C@@H]2[C@H](Oc3ccccc3)C(=O)N2c2ccc(F)cc2)cc1` (relative stereo), 19 µM. For `CS(=O)(=O)c1ccc([C@@H]2[C@H](Oc3ccccc3)C(=O)N2c2ccccc2)cc1` (relative stereo), the IC50 was found to be 19.9 µM.

`Cc1ccc(N2C(=O)[C@@H](Oc3ccccc3)[C@H]2c2ccc(S(C)(=O)=O)cc2)cc1` (relative stereo) returned an IC50 of 18.1 µM. In the case of `COc1ccc(N2C(=O)[C@@H](Oc3ccccc3)[C@H]2c2ccc(S(C)(=O)=O)cc2)cc1` (relative stereo), it took 19.2 µM to reach half-maximal inhibition (IC50). `CC(C)N1C(=O)[C@@H](Oc2ccccc2)[C@H]1c1ccc(S(C)(=O)=O)cc1` (relative stereo): inhibition was half-maximal at 21.8 µM (IC50). In turn, `CS(=O)(=O)c1ccc([C@@H]2[C@H](Oc3ccccc3)C(=O)N2C2CCCCC2)cc1` (relative stereo) showed an IC50 of 19.5 µM. With `CS(=O)(=O)c1ccc([C@@H]2[C@H](Oc3ccccc3)C(=O)N2c2ccc(Cl)cc2)cc1` (relative stereo) the figure was 18.3 µM; with `CCCN1C(=O)[C@@H](Oc2ccccc2)[C@H]1c1ccc(S(C)(=O)=O)cc1` (relative stereo), 21.7 µM.
